The target in assay [1] is T1, AVP-V1 sites (Rattus norvegicus, UniProt P30560).
T1 construct: crude membrane preparation of male rat liver (AVP-V1 sites); from tissue; host or cells: male rat liver, crude membranes
The assay can be described thus: [^3 H]AVP binding to crude membrane preparation of male rat liver (AVP-V1 sites). Here is the method: (§1) Nonspecific binding (5-10% of the total binding) was determined using 10 μM unlabeled AVP, and the binding reaction was terminated by filtration as described above for the [^3 H]OT binding assay.

Assay [2] addresses T2, AVP-V2 sites (Rattus norvegicus, UniProt Q00788).
T2 construct: male rat liver (AVP-V1 sites) or kidney medulla (AVP-V2 sites); from tissue; host or cells: male rat kidney medulla, crude membranes
The assay is described as follows: [^3 H]AVP binding to crude membrane preparation of male rat kidney medulla (AVP-V2 sites). The note with it: read-out: Receptor Binding Results IC50 (nM) [^3 H]-AVP-V2. Here is the method: as §1

Assay [3] addresses T3, uterine OT receptors (Rattus norvegicus, UniProt P70536).
T3 construct: from tissue; host or cells: uterus of DES-treated rats, crude membranes
T3 sequence (P70536 1-388): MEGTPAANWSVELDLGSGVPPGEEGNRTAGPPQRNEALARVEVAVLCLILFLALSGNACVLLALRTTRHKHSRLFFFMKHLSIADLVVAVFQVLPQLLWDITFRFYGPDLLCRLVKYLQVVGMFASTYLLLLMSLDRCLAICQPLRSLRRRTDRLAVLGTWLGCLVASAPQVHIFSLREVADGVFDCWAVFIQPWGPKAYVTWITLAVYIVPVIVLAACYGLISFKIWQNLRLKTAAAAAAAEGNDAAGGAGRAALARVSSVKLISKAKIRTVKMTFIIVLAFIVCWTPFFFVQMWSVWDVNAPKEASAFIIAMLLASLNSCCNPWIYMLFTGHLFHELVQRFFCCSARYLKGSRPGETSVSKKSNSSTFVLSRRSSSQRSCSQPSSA
The assay can be described thus: [^3 H]OT binding to uterine OT receptors, crude membrane preparation of uteri from DES-treated rats. The following applies: for IC50: rat uterus membranes, 1 nM [^3 H]OT, read-out: Receptor Binding Results IC50 (nM) [^3 H]OT. As for the experimental part: Competition studies were conducted at equilibrium (60 minutes; 22° C.) using 1 nM [^3 H]OT in the following assay buffer: 50 mM Tris-HCl, 5 mM MgCl2, and 0.1% BSA, pH 7.4.

[4] abbreviates: Receptor Binding Results IC50 (nM) [^3 H]-AVP-V1.
Where [5] appears, read: rat kidney medulla membranes, 2 nM [^3 H]AVP.
[6] abbreviates: read-out: Receptor Binding Results IC50 (nM) [^3 H]-AVP-V1.

This is an account of results in patent US5225528A, “Cyclic hexapeptide oxytocin antagonists” (priority 1990, dated 1993).

Structures can show the parent of a compound that is named as a salt. Where two headings read alike, the source gives them in different places. Numbered stars: 1 amine (or outer) side, 2 acyl side, 3 side chain; on linkers, the order of the positions; unused ones are H or OH. Square brackets hold non-standard residues; d marks the D form. Peptide text beside a SMILES is read from it. * marks the point of attachment. X8 = Cn1c[n+](C)cc1C[C@@H](N[*:1])C(=O)[*:2]; dNMeY = CN[C@H](Cc1ccc(O)cc1)C(=O)O; X6 = O=C([C@H]1CCCNN1[*:1])[*:2]; dNMeF = CN[C@H](Cc1ccccc1)C(=O)O; dPip(4-aza) = O=C(O)[C@H]1CNCCN1; Pip = O=C(O)[C@@H]1CCCCN1; dPip = O=C(O)[C@H]1CCCCN1; Cbz = O=C(OCc1ccccc1)*; Bn = c1ccc(C*)cc1

T1 sequence (P30560 whole entry): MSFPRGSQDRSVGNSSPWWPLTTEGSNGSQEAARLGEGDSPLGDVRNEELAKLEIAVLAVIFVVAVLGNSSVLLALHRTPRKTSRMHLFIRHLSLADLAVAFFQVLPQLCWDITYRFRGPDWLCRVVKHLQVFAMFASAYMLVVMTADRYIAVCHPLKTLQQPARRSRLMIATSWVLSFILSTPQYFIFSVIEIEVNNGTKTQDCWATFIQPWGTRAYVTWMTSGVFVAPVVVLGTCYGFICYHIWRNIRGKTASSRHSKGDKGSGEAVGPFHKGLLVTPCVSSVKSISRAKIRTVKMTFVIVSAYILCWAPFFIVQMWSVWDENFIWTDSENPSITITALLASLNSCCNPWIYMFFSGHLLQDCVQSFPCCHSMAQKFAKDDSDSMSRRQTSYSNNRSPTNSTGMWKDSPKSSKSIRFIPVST
T2 sequence (Q00788 whole entry): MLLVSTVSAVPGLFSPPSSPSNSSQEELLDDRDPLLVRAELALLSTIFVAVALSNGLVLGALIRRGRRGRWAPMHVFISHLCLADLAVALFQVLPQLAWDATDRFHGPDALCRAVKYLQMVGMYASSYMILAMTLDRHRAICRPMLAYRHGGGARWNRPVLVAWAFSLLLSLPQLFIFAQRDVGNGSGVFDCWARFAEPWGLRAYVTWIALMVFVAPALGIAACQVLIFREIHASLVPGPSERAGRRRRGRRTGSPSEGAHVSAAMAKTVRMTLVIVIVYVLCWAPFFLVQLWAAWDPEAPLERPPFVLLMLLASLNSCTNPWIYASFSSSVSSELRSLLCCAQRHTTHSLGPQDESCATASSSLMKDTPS

In the case of `CC[C@H](C)[C@@H]1NC(=O)[C@@H](Cc2c[nH]c3ccccc23)NC(=O)[C@@H]2CCCN2C(=O)[C@@H](Cc2c[n+](C)cn2C)NC(=O)[C@@H]2CCCCN2C(=O)[C@H]2CCCCN2C1=O` [Example 18, Cyclo[D-tryptophanyl-L-isoleucyl-D-pipecolyl-L-pipecolyl-D-[im-(CH3)2]^+ histidyl-L-prolyl] trifluoroacetate] (cyclo(I[dPip][Pip][X8]P[dW])), the figures for the IC50 in assay [1] (setting [4]), in assay [2] (setting [5]) and in assay [3] were more than 1000 nM, more than 10000 nM and 450 nM, respectively.
For the compound `CC[C@H](C)[C@@H]1NC(=O)[C@@H](Cc2ccc(OCc3ccccc3)cc2)NC(=O)[C@@H]2CCCN2C(=O)[C@@H](Cc2ccccc2)N(C)C(=O)[C@H](CCCCN)NC(=O)[C@H]2CCCCN2C1=O` [Example 145, C-[D-(O-Benzyl)Tyrosyl-L-isoleucyl-D-pipecolyl-L-lysyl-D-(N-methyl)phenylalanyl-L-prolyl]] (cyclo(I[dPip]K[dNMeF]P[dY](Bn))), the results for the IC50 in assay [1] (setting [4]) and in assay [2] (setting [5]) were more than 10000 nM and 10000 nM, respectively. In addition, the inhibition at 1 µM in assay [3] (1 h, @ 1,000 (nM), read-out: [^3 H]OT: percent inhibition of radioligand at the given concentration) turned out to be 9%.
Regarding “C-[D,L-3-(3-(5-Methoxy)indolyl)alanyl-L-isoleucyl-D-pipecolyl-L-pipecolyl-D-histidyl-L-prolyl] [Example 156]”, the IC50 is more than 30000 nM in assay [1] (rat liver membranes, 1 nM [^3 H]AVP, read-out: Receptor Binding Results IC50 (nM) [^3 H]-AVP-V1); more than 30000 nM in assay [2] (setting [5]); 1100 nM in assay [3].
For the compound `CC[C@H](C)[C@@H]1NC(=O)[C@@H](Cc2c[nH]c3ccccc23)NC(=O)[C@@H]2CCCN2C(=O)[C@@H](Cc2ccccc2)N(C)C(=O)[C@H](CCCCN)NC(=O)[C@H]2CCCCN2C1=O` [Example 132, c-[D-Tryptophanyl-L-isoleucyl-D-pipecolyl-L-lysyl-D-(N-methyl)phenylalanyl-L-prolyl]] (cyclo(I[dPip]K[dNMeF]P[dW])), the figures for the IC50 in assay [1] (setting [4]), in assay [2] (setting [5]) and in assay [3] were more than 10000 nM, 10000 nM and 65 nM, respectively.
Take `CC[C@H](C)[C@@H]1NC(=O)[C@@H](Cc2ccccc2)NC(=O)[C@@H]2CCCN2C(=O)[C@@H](Cc2c[nH]cn2)NC(=O)[C@@H]2CCCCN2C(=O)[C@H]2CCCNN2C1=O` [Example 14, Cyclo[D-phenylalanyl-L-isoleucyl-D-piperazyl-L-pipecolyl-D-histidyl-L-prolyl]] (cyclo(I[X6][Pip][dH]P[dF])): the figures for the IC50 in assay [1] (setting [6]), in assay [2] and in assay [3] were 10000 nM, more than 10000 nM and 38 nM, respectively.
For `CC[C@H](C)[C@@H]1NC(=O)[C@@H](Cc2ccccc2)NC(=O)[C@@H]2CCCN2C(=O)[C@@H](Cc2ccccc2)NC(=O)[C@H]2CNCCN2C(=O)[C@H]2CCCCN2C1=O` [Example 78, c-[D-Phenylalanyl-L-isoleucinyl-D-pipecolyl-D-piperazin-2-yl-D-phenylalanyl-L-prolyl]] (cyclo(I[dPip][dPip(4-aza)][dF]P[dF])), the IC50 in assay [1] (setting [6]) was 7900 nM; in assay [2] (setting [5]), more than 10000 nM; in assay [3], 300 nM.
As for `CC[C@H](C)[C@@H]1NC(=O)[C@@H](Cc2c[nH]c3ccccc23)NC(=O)[C@@H]2CCCN2C(=O)[C@@H](Cc2ccc(OCc3ccccc3)cc2)N(C)C(=O)[C@@H]2CCCCN2C(=O)[C@H]2CCCCN2C1=O` [Example 33, Cyclo[D-tryptophanyl-L-isoleucyl-D-pipecolyl-L-pipecolyl-D-(N^α methyl-O-benzyl)tyrosyl-L-prolyl]] (cyclo(I[dPip][Pip][dNMeY](Bn)P[dW])), the IC50 in assay [1] (setting [4]) is more than 10000 nM; in assay [2] (setting [5]), more than 10000 nM; in assay [3], 100 nM.
For `CC[C@H](C)[C@@H]1NC(=O)[C@@H](Cc2c[nH]c3ccccc23)NC(=O)[C@@H]2CCCN2C(=O)[C@@H](Cc2ccccc2)N(C)C(=O)[C@H](CCCCNC(=O)OCc2ccccc2)NC(=O)[C@H]2CCCCN2C1=O` [Example 35, Cyclo[D-tryptophanyl-L-isoleucyl-D-pipecolyl-L-(carbobenzyloxy)lysyl-D-(N^α Methyl)phenylalanyl-L-prolyl]] (cyclo(I[dPip]K(Cbz)[dNMeF]P[dW])), the IC50 in assay [1] (setting [4]) is 10000 nM; in assay [2] (setting [5]), 10000 nM; in assay [3], more than 100 nM.

As a reminder, the IC50 is the concentration needed to halve the response being measured.
